Experimental data published in ChEMBL document CHEMBL5260810, “Inhibition of bromodomain-containing protein 9 for the prevention of epigenetically-defined drug resistance” (Bioorg Med Chem Lett, 2017).
pIC50: −log10 of the molar value.

Legend:
RS4-11 = experiment: Cytotoxicity against human RS4-11 cells measured after 8 days; format: functional, cell-based; conditions: RS4-11, 192 h
[1] = Cytotoxicity against human HCC1576 cells measured after 8 days; format: functional, cell-based; conditions: HCC1576, 192 h
EJM = experiment: Cytotoxicity against human EJM cells measured after 8 days; format: functional, cell-based; conditions: 192 h
Jurkat = experiment: Cytotoxicity against human Jurkat cells measured after 8 days; format: functional, cell-based; conditions: 192 h
[2] = Cytotoxicity against human MOLP8 cells measured after 8 days; format: functional, cell-based; conditions: MOLP-8, 192 h
[3] = Cytotoxicity against mouse LA-4 cells measured after 8 days; format: functional, cell-based; conditions: LA-4, 192 h
NCI-H2171 = experiment: Cytotoxicity against human NCI-H2171 cells measured after 8 days; format: functional, cell-based; conditions: NCI-H2171, 192 h
U-266 = experiment: Cytotoxicity against human U266B1 cells measured after 8 days; format: functional, cell-based; conditions: U-266, 192 h
[4] = Cytotoxicity against human TC71 cells measured after 8 days; format: functional, cell-based; conditions: TC-71, 192 h
NCI-H446 = experiment: Cytotoxicity against human NCI-H446 cells measured after 8 days; format: functional, cell-based; conditions: NCI-H446, 192 h
CHP-212 = experiment: Cytotoxicity against human CHP-212 cells measured after 8 days; format: functional, cell-based; conditions: CHP-212, 192 h
[5] = Cytotoxicity against human NCE-G 120 cells measured after 8 days; format: functional, cell-based; conditions: NCE-G 120, 192 h
[6] = Cytotoxicity against human NCE-G 61 cells measured after 8 days; format: functional, cell-based; conditions: NCE-G 61, 192 h
[7] = Cytotoxicity against human GOS-3 cells measured after 8 days; format: functional, cell-based; conditions: GOS-3, 192 h
[8] = Cytotoxicity against human GOTO.P3 cells measured after 8 days; format: functional, cell-based; conditions: GOTO.P3, 192 h
DOHH-2 = experiment: Cytotoxicity against human DOHH-2 cells measured after 8 days; format: functional, cell-based; conditions: DOHH-2, 192 h
[9] = Cytotoxicity against human Ri-1 cells measured after 8 days; format: functional, cell-based; conditions: Ri-1, 192 h
Hs 683 = experiment: Cytotoxicity against human Hs 683 cells measured after 8 days; format: functional, cell-based; conditions: Hs 683, 192 h
[10] = Cytotoxicity against human Kelly cells measured after 8 days; format: functional, cell-based; conditions: 192 h
NB69 = experiment: Cytotoxicity against human NB69 cells measured after 8 days; format: functional, cell-based; conditions: NB69, 192 h
SF-268 = experiment: Cytotoxicity against human SF-268 cells measured after 8 days; format: functional, cell-based; conditions: SF-268, 192 h
[11] = Cytotoxicity against human 59M cells measured after 8 days; format: functional, cell-based; conditions: 192 h
[12] = Cytotoxicity against human HCC850 cells measured after 8 days; format: functional, cell-based; conditions: HCC850, 192 h
OVCAR-3 = experiment: Cytotoxicity against human OVCAR-3 cells measured after 8 days; format: functional, cell-based; conditions: OVCAR-3, 192 h
[13] = Cytotoxicity against human OV56 cells measured after 8 days; format: functional, cell-based; conditions: OV56, 192 h
OVCAR-4 = experiment: Cytotoxicity against human OVCAR-4 cells measured after 8 days; format: functional, cell-based; conditions: OVCAR-4, 192 h
OVCAR-5 = experiment: Cytotoxicity against human OVCAR-5 cells measured after 8 days; format: functional, cell-based; conditions: OVCAR-5, 192 h
[14] = Cytotoxicity against mouse JC cells measured after 8 days; format: functional, cell-based; conditions: 192 h
MCF-10A [15] = experiment: Cytotoxicity against human MCF-10A cells measured after 8 days; format: functional, cell-based; conditions: 192 h
MCF-10A [16] = experiment: Cytotoxicity against human MCF-10A AKT2-/- cells measured after 8 days; format: functional, cell-based; conditions: 192 h
MCF-10A [17] = experiment: Cytotoxicity against human MCF-10A PTEN-/- cells measured after 8 days; format: functional, cell-based; conditions: 192 h
SK-OV-3 = experiment: Cytotoxicity against human SK-OV-3 cells measured after 8 days; format: functional, cell-based; conditions: SK-OV-3, 192 h
NCI-H716 = experiment: Cytotoxicity against human NCI-H716 cells measured after 8 days; format: functional, cell-based; conditions: NCI-H716, 192 h
[18] = Cytotoxicity against human BT-B cells measured after 8 days; format: functional, cell-based; conditions: 192 h
[19] = Cytotoxicity against human MS751 cells measured after 8 days; format: functional, cell-based; conditions: MS751, 192 h
[20] = Cytotoxicity against human KPP-1 cells measured after 8 days; format: functional, cell-based; conditions: KPP-1, 192 h
Panc1005 = experiment: Cytotoxicity against human Panc1005 cells measured after 8 days; format: functional, cell-based; conditions: Panc1005, 192 h
[21] = Cytotoxicity against human PK-45P cells measured after 8 days; format: functional, cell-based; conditions: 192 h
SU.86.86 = experiment: Cytotoxicity against human SU-86-86 cells measured after 8 days; format: functional, cell-based; conditions: SU.86.86, 192 h
[22] = Cytotoxicity against human HCC1623 cells measured after 8 days; format: functional, cell-based; conditions: HCC1623, 192 h
LS174T = experiment: Cytotoxicity against human LS174T cells measured after 8 days; format: functional, cell-based; conditions: 192 h
RPMI-2650 = experiment: Cytotoxicity against human RPMI-2650 cells measured after 8 days; format: functional, cell-based; conditions: RPMI-2650, 192 h
[23] = Cytotoxicity against human 4498-16820 Mel-BR1 X1 cells measured after 8 days; format: functional, cell-based; conditions: 4498-16820 Mel-BR1 X1, 192 h
[24] = Cytotoxicity against human COLO 794 cells measured after 8 days; format: functional, cell-based; conditions: COLO 794, 192 h
CAKI-1 = experiment: Cytotoxicity against human CAKI-1 cells measured after 8 days; format: functional, cell-based; conditions: CAKI-1, 192 h
[25] = Cytotoxicity against human HCC89 cells measured after 8 days; format: functional, cell-based; conditions: HCC89, 192 h
[26] = Cytotoxicity against human UM-RC-7 cells measured after 8 days; format: functional, cell-based; conditions: UM-RC-7, 192 h
[27] = Cytotoxicity against human UCSD-242L cells measured after 8 days; format: functional, cell-based; conditions: 192 h
WM-115 = experiment: Cytotoxicity against human WM-115 cells measured after 8 days; format: functional, cell-based; conditions: WM-115, 192 h
HuCCT-1 = experiment: Cytotoxicity against human HuCCT-1 cells measured after 8 days; format: functional, cell-based; conditions: HuCCT-1, 192 h
[28] = Cytotoxicity against human JHH-1 cells measured after 8 days; format: functional, cell-based; conditions: JHH1, 192 h
[29] = Cytotoxicity against human JHH7 cells measured after 8 days; format: functional, cell-based; conditions: JHH7, 192 h
SNU-423 = experiment: Cytotoxicity against human SNU-423 cells measured after 8 days; format: functional, cell-based; conditions: SNU-423, 192 h
MKN-1 = experiment: Cytotoxicity against human MKN-1 cells measured after 8 days; format: functional, cell-based; conditions: MKN-1, 192 h
SNU-16 = experiment: Cytotoxicity against human SNU-16 cells measured after 8 days; format: functional, cell-based; conditions: SNU-16, 192 h
[30] = Cytotoxicity against human SNU-620 cells measured after 8 days; format: functional, cell-based; conditions: SNU620, 192 h
SW780 = experiment: Cytotoxicity against human SW780 cells measured after 8 days; format: functional, cell-based; conditions: SW780, 192 h
[31] = Cytotoxicity against human UM-UC-1 cells measured after 8 days; format: functional, cell-based; conditions: UM-UC-1, 192 h
[32] = Cytotoxicity against human ECC-1 cells measured after 8 days; format: functional, cell-based; conditions: ECC-1, 192 h
[33] = Cytotoxicity against human HEC-108 cells measured after 8 days; format: functional, cell-based; conditions: HEC-108, 192 h
[34] = Cytotoxicity against human HEC-251 cells measured after 8 days; format: functional, cell-based; conditions: HEC-251, 192 h
[35] = biological target: Serine/threonine-protein kinase PLK1 (Homo sapiens) (UniProt P53350); experiment: Inhibition of PLK1 (unknown origin) at 1 uM relative to control
Chain of Serine/threonine-protein kinase PLK1 (Homo sapiens) (P53350 whole entry): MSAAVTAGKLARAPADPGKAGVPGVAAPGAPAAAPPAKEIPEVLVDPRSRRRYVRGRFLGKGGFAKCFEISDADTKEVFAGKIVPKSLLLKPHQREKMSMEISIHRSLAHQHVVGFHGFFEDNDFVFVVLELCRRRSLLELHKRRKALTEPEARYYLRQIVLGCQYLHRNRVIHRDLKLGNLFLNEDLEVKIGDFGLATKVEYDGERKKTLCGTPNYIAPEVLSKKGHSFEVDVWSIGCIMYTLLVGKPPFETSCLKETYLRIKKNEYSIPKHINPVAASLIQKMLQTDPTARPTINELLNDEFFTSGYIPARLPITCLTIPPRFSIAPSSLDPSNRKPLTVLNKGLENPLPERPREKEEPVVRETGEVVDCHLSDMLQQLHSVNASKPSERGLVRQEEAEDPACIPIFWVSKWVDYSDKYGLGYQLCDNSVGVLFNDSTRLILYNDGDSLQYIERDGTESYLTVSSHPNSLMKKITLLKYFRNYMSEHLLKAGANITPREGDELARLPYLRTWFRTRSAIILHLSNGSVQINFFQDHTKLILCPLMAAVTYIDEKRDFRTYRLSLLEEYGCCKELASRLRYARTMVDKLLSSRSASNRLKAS

C/C=C/Cn1cc(-c2cc(OC)c(C(=O)N3CCOCC3)cc2OC)c2cc(C)[nH]c2c1=O
pIC50 (RS4-11): 5.70

C/C=C/Cn1cc(-c2ccc(C(C)(C)O)cc2OC)c2cc[nH]c2c1=O
pIC50 [1]: 4.70 | pIC50 (EJM): 4.70 | pIC50 (Jurkat): 4.83 | pIC50 [2]: 4.70 | pIC50 [3]: 4.70 | pIC50 (NCI-H2171): 4.70 | pIC50 (U-266): 4.70 | pIC50 [4]: 4.86 | pIC50 (NCI-H446): 4.70 | pIC50 (CHP-212): 4.70 | pIC50 [5]: 4.70 | pIC50 [6]: 4.70 | pIC50 [7]: 4.70 | pIC50 [8]: 4.70 | pIC50 (DOHH-2): 4.97 | pIC50 [9]: 4.70 | pIC50 (Hs 683): 4.70 | pIC50 [10]: 4.70 | pIC50 (NB69): 4.70 | pIC50 (SF-268): 4.70 | pIC50 [11]: 4.70 | pIC50 [12]: 4.70 | pIC50 (OVCAR-3): 4.70 | pIC50 [13]: 4.70 | pIC50 (OVCAR-4): 4.70 | pIC50 (OVCAR-5): 4.70 | pIC50 [14]: 4.70 | pIC50 (MCF-10A [15]): 4.94 | pIC50 (MCF-10A [16]): 4.85 | pIC50 (MCF-10A [17]): 4.70 | pIC50 (SK-OV-3): 4.70 | pIC50 (NCI-H716): 4.70 | pIC50 [18]: 4.70 | pIC50 [19]: 4.70 | pIC50 [20]: 4.70 | pIC50 (Panc1005): 4.70 | pIC50 [21]: 4.70 | pIC50 (SU.86.86): 4.70 | pIC50 [22]: 4.70 | pIC50 (LS174T): 4.70 | pIC50 (RPMI-2650): 4.70 | pIC50 [23]: 4.70 | pIC50 [24]: 4.70 | pIC50 (CAKI-1): 4.70 | pIC50 [25]: 4.70 | pIC50 [26]: 4.70 | pIC50 [27]: 4.70 | pIC50 (WM-115): 4.70 | pIC50 (HuCCT-1): 4.70 | pIC50 [28]: 4.70 | pIC50 [29]: 4.75 | pIC50 (SNU-423): 4.70 | pIC50 (MKN-1): 4.70 | pIC50 (SNU-16): 4.70 | pIC50 [30]: 4.70 | pIC50 (SW780): 4.70 | pIC50 [31]: 4.70 | pIC50 [32]: 4.70 | pIC50 [33]: 4.70 | pIC50 [34]: 4.70 | pIC50 (RS4-11): 4.81 | inhibition [35]: 1%

C/C=C/Cn1cc(-c2ccc(C(=O)N3CCOCC3)cc2)c2cc[nH]c2c1=O
pIC50 [1]: 4.70 | pIC50 (EJM): 4.70 | pIC50 (Jurkat): 4.70 | pIC50 [2]: 4.74 | pIC50 [3]: 4.92 | pIC50 (NCI-H2171): 4.70 | pIC50 (U-266): 4.70 | pIC50 [4]: 4.96 | pIC50 (NCI-H446): 4.70 | pIC50 (CHP-212): 4.73 | pIC50 [5]: 4.70 | pIC50 [6]: 4.70 | pIC50 [7]: 4.70 | pIC50 [8]: 4.70 | pIC50 (DOHH-2): 4.79 | pIC50 [9]: 4.70 | pIC50 (Hs 683): 4.70 | pIC50 [10]: 4.70 | pIC50 (NB69): 4.70 | pIC50 (SF-268): 4.70 | pIC50 [11]: 4.70 | pIC50 [12]: 4.70 | pIC50 (OVCAR-3): 4.70 | pIC50 [13]: 4.70 | pIC50 (OVCAR-4): 4.70 | pIC50 (OVCAR-5): 4.70 | pIC50 [14]: 4.70 | pIC50 (MCF-10A [15]): 4.70 | pIC50 (MCF-10A [16]): 4.85 | pIC50 (MCF-10A [17]): 4.70 | pIC50 (SK-OV-3): 4.70 | pIC50 (NCI-H716): 4.70 | pIC50 [18]: 4.70 | pIC50 [19]: 4.70 | pIC50 [20]: 4.96 | pIC50 (Panc1005): 4.70 | pIC50 [21]: 4.70 | pIC50 (SU.86.86): 4.70 | pIC50 [22]: 4.70 | pIC50 (LS174T): 4.70 | pIC50 (RPMI-2650): 4.70 | pIC50 [23]: 4.70 | pIC50 [24]: 4.70 | pIC50 (CAKI-1): 4.70 | pIC50 [25]: 4.70 | pIC50 [26]: 4.70 | pIC50 [27]: 4.70 | pIC50 (WM-115): 4.70 | pIC50 (HuCCT-1): 4.70 | pIC50 [28]: 4.70 | pIC50 [29]: 4.70 | pIC50 (SNU-423): 4.70 | pIC50 (MKN-1): 4.70 | pIC50 (SNU-16): 4.70 | pIC50 [30]: 4.70 | pIC50 (SW780): 4.70 | pIC50 [31]: 4.70 | pIC50 [32]: 4.70 | pIC50 [33]: 4.70 | pIC50 [34]: 4.70 | inhibition [35]: 0.9%
